Measured values as given in ChEMBL document CHEMBL1201862, “PubChem BioAssay data set” (2004).
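All cell lines were grown in 96-well plates and treated with compound for 48 hours. GI50 is the concentration that inhibits growth by half.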 Calls of active or inactive are those of the source. No stated cut-off is given here; in the data, active = GI50 up to about 1.1 µM and inactive = higher.

What was measured:
Experiment in all cases: NCI-60 cell line screen, 48 h
[1] = system: 786-0
[2] = system: A498
[3] = system: A549
[4] = system: ACHN
[5] = system: BT-549
[6] = system: HOP-92
[7] = system: K562
[8] = system: M14
[9] = system: MDA-N
[10] = system: MOLT-4
[11] = system: Malme-3M
[12] = system: OVCAR-5
[13] = system: PC-3
[14] = system: SK-MEL-28
[15] = system: SK-MEL-2
[16] = system: SK-MEL-5
[17] = system: SNB-19
[18] = system: SNB-75
[19] = system: CAKI-1

Measured: GI50

Cc1nn(CN2CCN(C)CC2)c(=S)n1/N=C/c1ccc(-c2ccc(Cl)cc2Cl)o1
inactive: [1] 50.1 µM | [2] 19.2 µM | [3] > 100 µM | [4] > 100 µM | [5] > 100 µM | [6] > 100 µM | [7] 50.8 µM | [8] > 100 µM | [9] 50.5 µM | [10] 30.5 µM | [11] > 100 µM | [12] > 100 µM | [13] 68.7 µM | [14] > 100 µM | [15] > 100 µM | [16] 43.3 µM | [17] > 100 µM

N/C(=N\c1ccc(Cl)cc1)NS(=O)(=O)c1c(C(F)(F)F)cccc1C(F)(F)F
inactive: [1] 24.8 µM | [2] 17.8 µM | [3] 12.6 µM | [4] 14.5 µM | [5] 29.3 µM | [6] 16.7 µM | [7] > 100 µM | [8] 26.3 µM | [9] 22.2 µM | [10] > 100 µM | [11] 17.4 µM | [12] 20.2 µM | [13] 5.45 µM | [14] 62.5 µM | [15] 12.7 µM | [16] 17.5 µM | [17] 18.9 µM | [18] 41.8 µM

S=C(Nc1ccc2c(c1)oc1ccccc12)c1cccs1
inactive: [1] 11.3 µM | [2] > 100 µM | [3] 66.7 µM | [4] > 100 µM | [5] 39.9 µM | [19] 52.8 µM | [6] 53.5 µM | [8] > 100 µM | [9] > 100 µM | [10] > 100 µM | [12] > 100 µM | [13] > 100 µM | [14] > 100 µM | [15] > 100 µM | [16] > 100 µM | [17] 38.1 µM

CC(C)(O)C1COC2=C1C(=O)c1ccccc1C2=O (stereo not given)
inactive: [1] 41.3 µM | [2] > 100 µM | [3] > 100 µM | [4] 48.2 µM | [5] 18.2 µM | [19] 60.7 µM | [6] 27.5 µM | [7] 35.2 µM | [8] 35.6 µM | [9] 18.6 µM | [10] 25.6 µM | [12] 23.7 µM | [13] 31.6 µM | [14] 23.2 µM | [15] 29.7 µM | [16] 22.3 µM | [17] > 100 µM | [18] 19.8 µM

O=C1O/C(=C\c2ccccc2)N(c2ccccc2)C1=O
inactive: [1] > 100 µM | [2] > 100 µM | [3] > 100 µM | [4] > 100 µM | [5] > 100 µM | [19] > 100 µM | [6] > 100 µM | [7] > 100 µM | [8] > 100 µM | [9] > 100 µM | [10] > 100 µM | [12] > 100 µM | [13] > 100 µM | [14] > 100 µM | [15] > 100 µM | [16] > 100 µM | [17] > 100 µM | [18] > 100 µM

Cc1nc2sc(CCl)nn2c(=O)c1Cl
inactive: [1] 10.6 µM | [3] 15.1 µM | [4] 15.7 µM | [5] 2.73 µM | [19] 11.2 µM | [6] 5.7 µM | [7] 12.1 µM | [8] 12.1 µM | [9] 11.4 µM | [10] 6.03 µM | [11] 11.2 µM | [12] 15.1 µM | [13] 12.3 µM | [14] 12.8 µM | [15] 11.1 µM | [16] 5.07 µM | [17] 16.3 µM | [18] 10.9 µM

CCOP(=O)(OCC)[C@]12C[C@@H](C)C=C[C@H]1COC2=O
inactive: [1] > 100 µM | [2] > 100 µM | [3] > 100 µM | [4] > 100 µM | [5] > 100 µM | [19] > 100 µM | [7] > 100 µM | [8] > 100 µM | [9] > 100 µM | [10] > 100 µM | [11] > 100 µM | [12] > 100 µM | [13] > 100 µM | [14] > 100 µM | [15] > 100 µM | [16] > 100 µM | [17] > 100 µM | [18] > 100 µM

CCN(CC)C(=S)N/N=C/c1cc([N+](=O)[O-])ccc1O
inactive: [1] 2.99 µM | [2] 2.25 µM | [3] 12.8 µM | [4] 3.36 µM | [5] 4.54 µM | [7] 3.18 µM | [8] 4.17 µM | [9] 5.43 µM | [10] 1.8 µM | [11] 6.68 µM | [12] 24.3 µM | [13] 4.92 µM | [14] 5.11 µM | [15] 16.4 µM | [16] 2.02 µM | [17] 9.16 µM | [18] 9.27 µM
